Assay results published in patent US12600732B2, “Bifunctional compounds for degrading BTK via ubiquitin proteosome pathway” (NURIX THERAPEUTICS, INC., priority 2019, dated 2026).
pEC50: −log10 of the molar value. Read-outs that look alike come from different tables or passages of the source.

Key:
[1] = tested on: B cell receptor (BCR) signaling; assay: B cell activation assay (flow cytometry), human B cells; assay type: cell-based; details: treatment 4 h, IgM stimulation 18 h
Procedure: Compound was present throughout the stimulation. Cells were stained with Live/Dead dye (Fisher L34976) and then fluorophore-conjugated antibodies against CD20 (Biolegend 302330), CD3 (BD Pharmingen 557705), CD86 (Biolegend 305416) and CD69 (Biolegend 310906). Stained cells were fixed in PFA and run on an Attune N×T Acoustic Focusing Flow Cytometer (Thermo-Fisher A29004), and data was analyzed using FlowJo (v10.5.3) and GraphPad Prism (v7.00) software. Single live lymphocytes were gated for B cells (CD20+CD3−) and T cells (CD3+CD20−), and the geometric mean fluorescence intensity (MFI) of CD86 and CD69 was calculated for each population. The MFI of the unstimulated sample was used to quantify baseline activation.
This example evaluates whether CTM treatment affects B cell receptor (BCR) signaling. BTK is activated downstream of the B cell receptor and leads to upregulation of activation markers CD86 and CD69 on the surface of B cells.

BTK [2] = assay: Non-human primate (cyno) DRF PD, BTK remaining in B cells; assay type: in vivo; details: blood, 24 h after previous dose
Procedure: This example evaluates potency and tolerability of BTK CTMs following multiple, consecutive days of dosing and examines potency of compounds for BTK and Aiolos degradation. The data in the table below is from a study in which animals were dosed daily with the designated oral dose. Analysis for BTK and Aiolos levels was performed twenty-four hours following the previous dose.

BTK [3] = molecular target: T1, BTK (Canis lupus familiaris, UniProt A0A8I3P3Z9); assay: PD data from dog (BTK degradation); assay type: in vivo; details: blood
T1 construct: from tissue
T1 sequence (A0A8I3P3Z9 1-664): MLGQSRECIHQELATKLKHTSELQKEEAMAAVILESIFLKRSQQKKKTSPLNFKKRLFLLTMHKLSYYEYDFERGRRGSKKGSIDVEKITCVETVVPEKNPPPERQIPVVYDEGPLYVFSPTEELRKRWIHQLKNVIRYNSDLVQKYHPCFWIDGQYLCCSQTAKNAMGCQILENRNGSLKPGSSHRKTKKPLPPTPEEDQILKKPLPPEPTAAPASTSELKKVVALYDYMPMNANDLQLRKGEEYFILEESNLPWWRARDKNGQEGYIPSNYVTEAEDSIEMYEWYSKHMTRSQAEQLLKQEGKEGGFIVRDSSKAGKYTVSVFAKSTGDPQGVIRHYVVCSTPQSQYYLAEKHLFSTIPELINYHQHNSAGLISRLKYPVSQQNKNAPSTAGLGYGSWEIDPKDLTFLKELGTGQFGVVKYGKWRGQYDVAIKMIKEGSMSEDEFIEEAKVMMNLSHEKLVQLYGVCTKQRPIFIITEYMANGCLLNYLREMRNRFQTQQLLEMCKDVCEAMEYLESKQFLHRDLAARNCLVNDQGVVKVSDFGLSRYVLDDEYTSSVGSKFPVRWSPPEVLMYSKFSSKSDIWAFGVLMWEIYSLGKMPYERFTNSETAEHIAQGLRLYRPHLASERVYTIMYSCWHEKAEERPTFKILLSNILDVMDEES
Excerpt: (§1) In this example, compounds were profiled for activity in non-mouse species.

BTK [4] = assay: PD data from cyno (BTK degradation); assay type: in vivo; details: blood
Excerpt: as §1

[5] = PK data for BTK CTMs (in vivo plasma concentrations); details: for Vd: read-out: Volume of Distribution
Excerpt: The present example evaluates in vivo plasma concentrations of BTK CTMs to develop PK-PD-efficacy relationship and predict human exposure.

CRBN neo-substrates = assay: CRBN neo-substrate levels / IMiD activity in MOLT4 and TMD8 cells (FIGS. 10-12); assay type: cell-based; details: MOLT4 and TMD8 cells, FIGS. 11A and 11B
Excerpt: FIGS. 10A and 10B provide effects of compounds 73, 72, 121, and 44, and control compounds, on neo-substrate and ITK or BTK levels after twenty-four hours in MOLT4 cells (FIG. 10A) and TMD8 cells (FIG. 10B).
FIGS. 11A and 11B provide effects of compounds 44, 72, and 149, and control compounds, on CRBN neo-substrate and ITK levels in MOLT4 cells (FIG. 11A) and TMD8 cells (FIG. 11B).
FIG. 12 provides effects of compounds 130, 149, and 44 on ITK levels and IMiD activity.

[6] = Compound plasma exposure in mouse (CD-1), daily oral dosing, same table as the cyno DRF study; assay type: in vivo; details: CD-1, mouse
BTK [7] = molecular target: BTK (Homo sapiens, UniProt Q06187); assay: BTK degradation (Total BTK HTRF) in Rec-1 cells (Mantle Cell Lymphoma model); assay type: cell-based; parameters: endogenous in cells; host or cells: TMD8, Mino, Rec-1; details: treatment time 4 h
BTK (Homo sapiens, UniProt Q06187), sequence (Q06187 whole entry): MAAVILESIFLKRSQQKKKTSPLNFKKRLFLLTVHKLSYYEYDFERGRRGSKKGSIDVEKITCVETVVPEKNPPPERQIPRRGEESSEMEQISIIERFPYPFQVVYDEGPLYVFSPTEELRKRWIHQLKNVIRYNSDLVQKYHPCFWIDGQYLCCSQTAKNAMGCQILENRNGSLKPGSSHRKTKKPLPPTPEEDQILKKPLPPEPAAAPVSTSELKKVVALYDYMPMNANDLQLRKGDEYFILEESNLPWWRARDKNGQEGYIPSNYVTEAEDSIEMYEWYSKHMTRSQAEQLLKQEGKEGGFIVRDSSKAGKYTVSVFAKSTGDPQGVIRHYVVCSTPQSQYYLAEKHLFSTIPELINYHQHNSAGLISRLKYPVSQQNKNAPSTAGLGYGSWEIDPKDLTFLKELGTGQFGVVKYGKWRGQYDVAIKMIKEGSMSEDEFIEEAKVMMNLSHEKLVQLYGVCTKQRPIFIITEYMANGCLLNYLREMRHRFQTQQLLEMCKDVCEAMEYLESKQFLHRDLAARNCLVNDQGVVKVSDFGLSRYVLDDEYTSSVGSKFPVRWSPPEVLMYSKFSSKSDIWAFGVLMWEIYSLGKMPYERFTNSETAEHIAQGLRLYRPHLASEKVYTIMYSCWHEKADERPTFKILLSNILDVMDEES
Procedure: BTK levels were determined using Cisbio Total-BTK HTRF (Homologous Time-Resolved Fluorescence) kit (63ADK064PEG) according to the manufacturer's protocol. Briefly, cells were incubated in 1× supplied lysis buffer for 30 minutes. In an opaque white low volume 96-well plate (Cisbio, 66PL96005), cell lysate was combined with two different specific BTK antibodies, one conjugated with Eu^3+-Cryptate FRET donor and one conjugated with d2 FRET acceptor. Assay controls include wells containing cell lysate with only the Eu^3+-Cryptate FRET donor antibody and wells containing both HTRF antibodies and lysis buffer without cells or control lysate provided by Cisbio. HTRF ratio was calculated as (acceptor signal at 665 nm/donor signal at 620 nm)×10^4. Background HTRF levels were determined from the control well containing the donor, but no acceptor, antibody. Background HTRF levels were subtracted from all samples. Readouts were reported as HTRF levels relative to HTRF levels of DMSO-treated cells. Four-parameter non-linear regressions were performed in GraphPad Prism 7.02 to obtain DC50 values.
This example evaluates the potency of CTMs in a model of Mantle Cell Lymphoma (MCL). To evaluate potential therapeutic indications, BTK CTMs were assayed in models of Mantle Cell Lymphoma as with the TMD8 cells (ABC-DLBCL) above. Tested CTMs had similar potencies for BTK degradation in the MCL cell lines (Mino and Rec-1) and TMD8 cells.

TMD8 C481S cells = assay: Cell viability assay (CellTiter-Glo), TMD8 C481S cells
[8] = Rat Sprague-Dawley, 10 mg/kg PO
[9] = 30 mg/kg, 30 mg/kg PO, 1 day of dosing
[10] = 30 mg/kg, 30 mg/kg PO, 14 days of dosing
[11] = 100 mg/kg, 100 mg/kg PO, 1 day of dosing
[12] = 100 mg/kg, 100 mg/kg PO, 14 days of dosing
[13] = 300 mg/kg, 300 mg/kg PO, 1 day of dosing
[14] = 300 mg/kg, 300 mg/kg PO, 14 days of dosing

## NC(=O)c1ncc(N2CCCCC2)nc1Nc1ccc(C2CCN(C[C@@H]3CCN(c4ccc5c(c4)C(=O)N(C4CCC(=O)NC4=O)C5=O)C3)CC2)cc1 (stereo partly drawn) [Compound 149]
[1]; read-out: CD69 EC50
  pEC50: 8.40
[1]; read-out: CD86 EC50
  pEC50: 8.30
BTK [2]; 10 mg/kg PO daily, 1 day of dosing
  % BTK Remaining in B cells: 9%
BTK [2]; 10 mg/kg PO daily, 14 days of dosing
  % BTK Remaining in B cells: 7%
BTK [2]; 30 mg/kg PO daily, 1 day of dosing
  % BTK Remaining in B cells: 4%
BTK [2]; 30 mg/kg PO daily, 14 days of dosing
  % BTK Remaining in B cells: 6%
BTK [2]; 100 mg/kg PO daily, 1 day of dosing
  % BTK Remaining in B cells: 3%
BTK [2]; 100 mg/kg PO daily, 14 days of dosing
  % BTK Remaining in B cells: 6%
BTK [3]; 1 mg/kg IV, 2 h
  % BTK Remaining: 43%
BTK [3]; 1 mg/kg IV, 4 h
  % BTK Remaining: 22%
BTK [3]; 1 mg/kg IV, 8 h
  % BTK Remaining: 10%
BTK [3]; 1 mg/kg IV, 24 h
  % BTK Remaining: 11%
BTK [3]; 10 mg/kg PO, 2 h
  % BTK Remaining: 61%
BTK [3]; 10 mg/kg PO, 4 h
  % BTK Remaining: 47%
BTK [3]; 10 mg/kg PO, 8 h
  % BTK Remaining: 29%
BTK [3]; 10 mg/kg PO, 24 h
  % BTK Remaining: 17%
BTK [4]; 1 mg/kg IV, 2 h
  % BTK Remaining: 24%
BTK [4]; 1 mg/kg IV, 4 h
  % BTK Remaining: 9%
BTK [4]; 1 mg/kg IV, 8 h
  % BTK Remaining: 4%
BTK [4]; 1 mg/kg IV, 24 h
  % BTK Remaining: 7%
BTK [4]; 10 mg/kg PO, 2 h
  % BTK Remaining: 81%
BTK [4]; 10 mg/kg PO, 4 h
  % BTK Remaining: 39%
BTK [4]; 10 mg/kg PO, 8 h
  % BTK Remaining: 17%
BTK [4]; 10 mg/kg PO, 24 h
  % BTK Remaining: 12%
BTK [4]; 30 mg/kg PO, 2 h
  % BTK Remaining: 89%
BTK [4]; 30 mg/kg PO, 4 h
  % BTK Remaining: 51%
BTK [4]; 30 mg/kg PO, 8 h
  % BTK Remaining: 26%
BTK [4]; 30 mg/kg PO, 24 h
  % BTK Remaining: 19%
BTK [4]; 100 mg/kg PO, 2 h
  % BTK Remaining: 97%
BTK [4]; 100 mg/kg PO, 4 h
  % BTK Remaining: 56%
BTK [4]; 100 mg/kg PO, 8 h
  % BTK Remaining: 20%
BTK [4]; 100 mg/kg PO, 24 h
  % BTK Remaining: 12%
[5]; Dog Beagle, 1 mg/kg IV
  AUC: 1.2 µM·h
  clearance: 18.4 mL/min/kg
  Vd: 7 L/kg
[5]; Dog Beagle, 10 mg/kg PO
  AUC: 0.11 µM·h
  bioavailability: 0.9%
[5]; Monkey cynomolgus, 1 mg/kg IV
  AUC: 1 µM·h
  clearance: 22.2 mL/min/kg
  Vd: 7.5 L/kg
[5]; Monkey cynomolgus, 10 mg/kg PO
  AUC: 0.09 µM·h
  bioavailability: 0.8%
[5]; Monkey cynomolgus, 30 mg/kg PO
  AUC: 0.08 µM·h
[5]; Mouse Balb/c, 1 mg/kg IV
  AUC: 4.5 µM·h
  clearance: 5.2 mL/min/kg
  Vd: 1 L/kg
[5]; Mouse Balb/c, 10 mg/kg PO
  AUC: 16 µM·h
  bioavailability: 35%
[5]; Mouse Balb/c, 30 mg/kg PO
  AUC: 27.7 µM·h
  bioavailability: 1%
[5]; Mouse Balb/c, 90 mg/kg PO
  AUC: 37.5 µM·h
  bioavailability: 1%
[5]; Mouse CD-1, 1 mg/kg IV
  AUC: 1.8 µM·h
  clearance: 12.6 mL/min/kg
  Vd: 1.5 L/kg
[5]; Mouse CD-1, 10 mg/kg PO
  AUC: 11.5 µM·h
  bioavailability: 64%
[5]; Rat Sprague-Dawley, 1 mg/kg IV
  AUC: 1.2 µM·h
  clearance: 19 mL/min/kg
  Vd: 2.8 L/kg
[5]; [8]
  AUC: 0.88 µM·h
  bioavailability: 7%
CRBN neo-substrates
  effect on CRBN neo-substrate levels in cells: some effect
[6]; [9]
  AUC: 12.2 µM·h
  Cmax: 940 nM
[6]; [10]
  AUC: 22.8 µM·h
  Cmax: 1640 nM
[6]; [11]
  AUC: 27.7 µM·h
  Cmax: 2050 nM
[6]; [12]
  AUC: 33.4 µM·h
  Cmax: 2410 nM
[6]; [13]
  AUC: 38.6 µM·h
  Cmax: 2610 nM
[6]; [14]
  AUC: 64.2 µM·h
  Cmax: 4100 nM
BTK [7]
  DC50: 4 nM
TMD8 C481S cells; Homo sapiens, TMD8, 72 h
  pEC50: 7.43
TMD8 C481S cells; TMD8 C481S cells, treatment time 72 h
  EMAX (% viable cells): 18%
